Source: patent publication US20040054194A1, “Method for producing 1-pyrrolines” (priority 2003, published 2004)
Like-named read-outs stand apart in the source and are kept apart here.

Assays:
[1] = logP determination by HPLC on a reversed-phase column (C 18), EEC Directive 79/831 Annex V.A8; type: physicochemical; settings: reversed-phase HPLC column (C 18), pH 2.3, HPLC
Description: The logp values given in the tables and Preparation Examples above are determined in accordance with EEC Directive 79/831 Annex V .A8 by HPLC (High Performance Liquid Chromatography) on a reversed-phase column (C 18). Temperature: 43° C.
The determination is carried out in the acidic range at pH 2.3 using the mobile phases 0.1% aqueous phosphoric acid and acetonitrile; linear gradient from 10% acetonitrile to 90% acetonitrile.
Calibration is carried out using unbranched alkan-2-ones (of 3 to 16 carbon atoms) with known logp values (determination of the logp values by the retention times using linear interpolation between two successive alkanones).

[2] = acidic range pH 2.3, pyrrolines of the formula (I), read-out: logP*
[3] = pH 2.3, read-out: log P (pH 2.3)
[4] = acidic range pH 2.3, amides of the formula (II), read-out: logP*

SMILES	chromatographic logP [1, 2]	chromatographic logP [1, 3]	melting point [°C]	chromatographic logP [1, 4]	chromatographic logP ([1]; acidic range pH 2.3, cyclopropanes of the formula (III), read-out: logP*)	chromatographic logP ([1]; acidic range pH 2.3, chalcones of the formula (VI), read-out: logP*)
Fc1cccc(F)c1C1=NC(c2ccc(Br)cc2)CC1 (centres unmarked) [Example I-1, 2-(4-bromophenyl)-5-(2,6-difluorophenyl)-3,4-dihydro-2H-pyrrole]	2.77	2.74	48	–	–	–
Fc1cccc(F)c1C1=NC(c2ccc(Cl)cc2)CC1 (centres unmarked) [Example I-2, 2-(4-chlorophenyl)-5-(2,6-difluorophenyl)-3,4-dihydro-2H-pyrrole]	2.59	2.59	–	–	–	–
O=C(/C=C/c1ccc(Br)cc1)c1c(F)cccc1F [VI-1, (2E)-3-(4-bromophenyl)-1-(2,6-difluorophenyl)-2-propen-1-one]	–	3.98	71	–	–	3.98

Further lines, results first:

chromatographic logP [1, 2]	chromatographic logP [1, 3]	melting point [°C]	chromatographic logP [1, 4]	chromatographic logP ([1]; acidic range pH 2.3, cyclopropanes of the formula (III), read-out: logP*)	chromatographic logP ([1]; acidic range pH 2.3, chalcones of the formula (VI), read-out: logP*)	SMILES
–	2.67	162 to 163	2.67	–	–	CC(=O)NC(CCC(=O)c1c(F)cccc1F)c1ccc(Br)cc1 (centres unmarked) [II-1, N-[1-(4-bromophenyl)-4-(2,6-difluorophenyl)-4-oxobutyl]acetamide]
–	2.59	–	2.59	–	–	CC(=O)NC(CCC(=O)c1c(F)cccc1F)c1ccc(Cl)cc1 (centres unmarked) [II-2, N-[1-(4-chlorophenyl)-4-(2,6-difluorophenyl)-4-oxobutyl]acetamide]
–	–	–	3.79	–	–	CC(=O)NC(CCC(=O)c1c(F)cccc1F)c1ccc(-c2ccc(OC(F)(F)F)cc2)cc1 (centres unmarked) [II-3]
–	4.24	64 to 65	–	4.22	–	O=C(c1c(F)cccc1F)C1CC1c1ccc(Br)cc1 (centres unmarked) [III-1, [2-(4-bromophenyl)cyclopropyl](2,6-difluoro-phenyl)methanone]
